According to US10752609B2, “GSK-3 inhibitors” (priority 2016, dated 2020):
Read-outs that look alike come from different tables or passages of the source.

What was measured:
GSK3α = GSK3α (Homo sapiens, UniProt P49840); experiment: GSK3α kinase assay (Caliper LabChip3000 mobility shift, fluoresceinated peptide substrate)
Description: (§1) The kinase assay was performed in V-bottom 384-well plates. […] The reaction was incubated at room temperature for 20 hours and terminated by adding 45 μl of 35 mM EDTA to each sample. The reaction mixture was analyzed on the Caliper LabChip3000 (Caliper, Hopkinton, Mass.) by electrophoretic separation of the unphosphorylated substrate and phosphorylated product. […] Compounds were dissolved at 10 mM in dimethylsulfoxide (DMSO) and evaluated at eleven concentrations. IC50 values were derived by non-linear regression analysis.

pTau = pTau assay (no method described); format: cell-based
GSK3β = GSK3β (Homo sapiens, UniProt P49841); experiment: GSK3β kinase assay (Caliper LabChip3000 mobility shift, fluoresceinated peptide substrate); format: biochemical
Description: as §1

[1] = 250 pM enzyme, 20 uM ATP, 1.5 uM peptide, 20 hours room temperature, first value of cell GSK3β/GSK3α, read-out: GSK3β (nM), IC50

Sequence of GSK3β (P49841 whole entry, species assumed): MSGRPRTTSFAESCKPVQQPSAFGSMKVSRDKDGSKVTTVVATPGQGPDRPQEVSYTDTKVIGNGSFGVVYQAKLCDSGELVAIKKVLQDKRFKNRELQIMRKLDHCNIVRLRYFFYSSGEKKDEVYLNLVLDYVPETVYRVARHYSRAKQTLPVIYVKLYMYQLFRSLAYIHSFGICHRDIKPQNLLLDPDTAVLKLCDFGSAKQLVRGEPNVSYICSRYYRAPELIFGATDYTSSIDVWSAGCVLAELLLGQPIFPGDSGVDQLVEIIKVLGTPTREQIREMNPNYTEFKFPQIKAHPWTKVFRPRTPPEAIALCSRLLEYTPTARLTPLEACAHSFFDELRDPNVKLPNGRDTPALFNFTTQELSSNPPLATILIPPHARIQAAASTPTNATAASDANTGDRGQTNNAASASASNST
Sequence of GSK3α (P49840 whole entry, species assumed): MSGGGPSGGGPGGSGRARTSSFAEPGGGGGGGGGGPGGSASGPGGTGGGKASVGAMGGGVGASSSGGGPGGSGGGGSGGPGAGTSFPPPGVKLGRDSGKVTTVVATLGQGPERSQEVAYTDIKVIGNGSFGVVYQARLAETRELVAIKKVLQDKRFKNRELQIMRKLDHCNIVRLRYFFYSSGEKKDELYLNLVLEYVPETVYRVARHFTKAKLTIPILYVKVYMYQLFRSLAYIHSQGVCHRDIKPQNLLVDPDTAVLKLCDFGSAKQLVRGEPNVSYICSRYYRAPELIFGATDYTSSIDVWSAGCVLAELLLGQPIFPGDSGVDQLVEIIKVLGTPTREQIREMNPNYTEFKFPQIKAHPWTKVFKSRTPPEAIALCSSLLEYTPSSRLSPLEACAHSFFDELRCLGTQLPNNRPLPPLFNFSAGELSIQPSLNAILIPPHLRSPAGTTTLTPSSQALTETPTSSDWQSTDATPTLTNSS

| Structure (SMILES) | IC50 (GSK3α) | IC50 (pTau) | IC50 (GSK3β; [1]) | IC50 (GSK3β) |
| --- | --- | --- | --- | --- |
| O=C(Nc1cnccc1OCC(F)(F)F)c1ccnc(NCc2cc(C(F)(F)F)cc(C(F)(F)F)c2)n1 [Example 144, 2-((3,5-Bis(trifluoromethyl)benzyl)amino)-N-(4-(2,2,2-trifluoroethoxy)pyridin-3-yl)pyrimidine-4-carboxamide] | 200 nM | 10000 nM | 210 nM | – |
| CN1C(C)(C)CC(Nc2nccc(C(=O)Nc3cnccc3OCC(F)(F)F)n2)CC1(C)C [Example 145, 2-((1,2,2,6,6-Pentamethylpiperidin-4-yl)amino)-N-(4-(2,2,2-trifluoroethoxy)pyridin-3-yl)pyrimidine-4-carboxamide] | 460 nM | 10000 nM | 250 nM | – |
| O=C(Nc1cnccc1-c1ccccc1)c1ccnc(NCC2CC2)n1 [Example 147, 2-((Cyclopropylmethyl)amino)-N-(4-phenylpyridin-3-yl)pyrimidine-4-carboxamide] | 0.14 nM | 20 nM | 0.14 nM | – |
| O=C(Nc1cnccc1-c1ccc(F)cc1)c1ccnc(NC2CCCC2)n1 [Example 148, 2-(Cyclopentylamino)-N-(4-(4-fluorophenyl)pyridin-3-yl)pyrimidine-4-carboxamide] | 0.3 nM | 51 nM | 0.35 nM | – |
| O=C(Nc1cnccc1-c1ccc(F)cc1F)c1ccnc(Nc2ccc3ccccc3c2)n1 [Example 149, N-(4-(2,4-Difluorophenyl)pyridin-3-yl)-2-(naphthalen-2-ylamino)pyrimidine-4-carboxamide] | 0.36 nM | 110 nM | 0.65 nM | – |
| O=C(Nc1cnccc1-c1ccc(F)cc1)c1ccnc(NC2CCCCC2)n1 [Example 150, 2-(Cyclohexylamino)-N-(4-(4-fluorophenyl)pyridin-3-yl)pyrimidine-4-carboxamide] | 0.57 nM | 120 nM | 0.66 nM | – |
| O=C(Nc1cnccc1-c1ccc(F)cc1F)c1ccnc(Nc2ccccc2)n1 [Example 151, N-(4-(2,4-Difluorophenyl)pyridin-3-yl)-2-(phenylamino)pyrimidine-4-carboxamide] | 0.32 nM | 44 nM | 0.67 nM | – |
| O=C(Nc1cnccc1-c1ccc(F)cc1)c1ccnc(NC2CC2)n1 [Example 153, 2-(Cyclopropylamino)-N-(4-(4-fluorophenyl)pyridin-3-yl)pyrimidine-4-carboxamide] | 0.65 nM | 55 nM | 0.82 nM | – |
| O=C(Nc1cnccc1-c1ccccc1F)c1ccnc(Nc2ccc3ccccc3c2)n1 [Example 154, N-(4-(2-Fluorophenyl)pyridin-3-yl)-2-(naphthalen-2-ylamino)pyrimidine-4-carboxamide] | 0.7 nM | 100 nM | 1.4 nM | – |
| O=C(Nc1cnccc1-c1ccc(F)cc1F)c1ccnc(Nc2ccc(F)cc2F)n1 [Example 155] | 0.97 nM | 10000 nM | 1.5 nM | – |
| O=C(Nc1cnccc1-c1ccccc1)c1ccnc(NC2CCCCC2)n1 [Example 156, 2-(Cyclohexylamino)-N-(4-phenylpyridin-3-yl)pyrimidine-4-carboxamide] | 1.3 nM | 350 nM | – | 2.1 nM |
| CC(Nc1nccc(C(=O)Nc2cnccc2-c2ccc(F)cc2)n1)C(C)(C)C (stereo not drawn) [Example 157, 2-((3,3-Dimethylbutan-2-yl)amino)-N-(4-(4-fluorophenyl)pyridin-3-yl)pyrimidine-4-carboxamide] | 0.72 nM | 410 nM | 2.2 nM | – |
| CNc1nccc(C(=O)Nc2cnccc2-c2ccc(F)cc2F)n1 [Example 158, N-(4-(2,4-Difluorophenyl)pyridin-3-yl)-2-(methylamino)pyrimidine-4-carboxamide] | 1.9 nM | 96 nM | 2.4 nM | – |
| O=C(Nc1cnccc1-c1ccccc1)c1ccnc(Nc2cnn(-c3cc(F)ccc3F)c2)n1 [Example 159, 2-((1-(2,5-Difluorophenyl)-1H-pyrazol-4-yl)amino)-N-(4-phenylpyridin-3-yl)pyrimidine-4-carboxamide] | 1.9 nM | 390 nM | 7.2 nM | – |
| CN1CCC(Nc2nccc(C(=O)Nc3cnccc3-c3ccccc3F)n2)CC1 [Example 162, N-(4-(2-Fluorophenyl)pyridin-3-yl)-2-((1-methylpiperidin-4-yl)amino)pyrimidine-4-carboxamide] | 39 nM | 2200 nM | 32 nM | – |
| O=C(Nc1cnccc1-c1ccccc1)c1ccnc(Nc2ccccn2)n1 [Example 163, N-(4-Phenylpyridin-3-yl)-2-(pyridin-2-ylamino)pyrimidine-4-carboxamide] | 210 nM | 10000 nM | 310 nM | – |
| O=C(Nc1cnccc1-c1ccc(F)cc1F)c1ccnc(Nc2cccnn2)n1 [Example 164, N-(4-(2,4-Difluorophenyl)pyridin-3-yl)-2-(pyridazin-3-ylamino)pyrimidine-4-carboxamide] | 780 nM | 10000 nM | 1500 nM | – |

| Structure (SMILES) | IC50 (GSK3α) | IC50 (pTau) | IC50 (GSK3β; [1]) | IC50 (GSK3β) |
| --- | --- | --- | --- | --- |
| CN1CCC(Nc2nccc(C(=O)Nc3cnccc3-c3ccccc3)n2)CC1 [Example 165, 2-((1-Methylpiperidin-4-yl)amino)-N-(4-phenylpyridin-3-yl)pyrimidine-4-carboxamide] | 110 nM | 3300 nM | 91 nM | – |
| CCCC1(c2cc(Cl)ncc2NC(=O)c2ccnc(NC3CC3)n2)OCCO1 [Example 166, N-(6-Chloro-4-(2-propyl-1,3-dioxolan-2-yl)pyridin-3-yl)-2-(cyclopropylamino)pyrimidine-4-carboxamide] | 1.7 nM | 220 nM | 0.73 nM | – |
| CCCC1(c2cc(Cl)ncc2NC(=O)c2ccnc(NC3CCOCC3)n2)OCCO1 [Example 167, N-(6-Chloro-4-(2-propyl-1,3-dioxolan-2-yl)pyridin-3-yl)-2-((tetrahydro-2H-pyran-4-yl)amino)pyrimidine-4-carboxamide] | 0.47 nM | 69 nM | 0.43 nM | – |
| O=C(Nc1cnc(F)cc1N1CCOCC1)c1ccnc(Nc2cccc(Cl)c2)n1 [Example 168] | 0.2 nM | 21 nM | 0.17 nM | – |
| O=C(Nc1cnc(F)cc1N1CCOCC1)c1ccnc(Nc2ccc(Cl)c(F)c2)n1 [Example 169, 2-((4-Chloro-3-fluorophenyl)amino)-N-(6-fluoro-4-morpholinopyridin-3-yl)pyrimidine-4-carboxamide] | 0.15 nM | 34 nM | 0.27 nM | – |
| O=C(Nc1cnc(F)cc1N1CCOCC1)c1ccnc(Nc2ccc(Cl)cc2)n1 [Example 170] | 0.21 nM | 48 nM | 0.34 nM | – |
| O=C(Nc1cnc(F)cc1N1CCOCC1)c1ccnc(Nc2ccc(Cl)cc2F)n1 [Example 171, 2-((4-Chloro-2-fluorophenyl)amino)-N-(6-fluoro-4-morpholinopyridin-3-yl)pyrimidine-4-carboxamide] | 0.47 nM | 59 nM | – | 0.58 nM |
| O=C(Nc1cnc(F)cc1N1CCOCC1)c1ccnc(Nc2cccc(OC(F)(F)F)c2)n1 [Example 172, N-(6-Fluoro-4-morpholinopyridin-3-yl)-2-((3-(trifluoromethoxy)phenyl)amino)pyrimidine-4-carboxamide] | 0.46 nM | 160 nM | 0.89 nM | – |
| CC(C)(C)CNc1nccc(C(=O)Nc2cnc(F)cc2N2CCOCC2)n1 [Example 173] | 0.49 nM | 69 nM | – | 1.1 nM |
| N#Cc1ccc(Nc2nccc(C(=O)Nc3cnc(F)cc3N3CCOCC3)n2)cc1 [Example 174, 2-((4-Cyanophenyl)amino)-N-(6-fluoro-4-morpholinopyridin-3-yl)pyrimidine-4-carboxamide] | 1.6 nM | 54 nM | 1.1 nM | – |
| O=C(Nc1cnc(F)cc1N1CCOCC1)c1ccnc(NC2COC2)n1 [Example 175, N-(6-Fluoro-4-morpholinopyridin-3-yl)-2-(oxetan-3-ylamino)pyrimidine-4-carboxamide] | 27 nM | 2100 nM | 46 nM | – |
| N#Cc1ccc(Nc2nccc(C(=O)Nc3cnc(F)cc3N3CCC(F)(F)CC3)n2)cc1 [Example 176, 2-((4-Cyanophenyl)amino)-N-(4-(4,4-difluoropiperidin-1-yl)-6-fluoropyridin-3-yl)pyrimidine-4-carboxamide] | 0.28 nM | 28 nM | – | 0.32 nM |
| O=C(Nc1cnc(F)cc1N1CCC(F)(F)CC1)c1ccnc(Nc2ccccc2)n1 [Example 177, N-(4-(4,4-Difluoropiperidin-1-yl)-6-fluoropyridin-3-yl)-2-(phenylamino)pyrimidine-4-carboxamide] | 0.41 nM | 60 nM | 0.47 nM | – |
| O=C(Nc1cnc(F)cc1N1CCC(F)(F)CC1)c1ccnc(Nc2ccc(Cl)cc2)n1 [Example 178, 2-((4-Chlorophenyl)amino)-N-(4-(4,4-difluoropiperidin-1-yl)-6-fluoropyridin-3-yl)pyrimidine-4-carboxamide] | 0.57 nM | 69 nM | 0.67 nM | – |
| O=C(Nc1cnc(F)cc1N1CCC(F)(F)CC1)c1ccnc(NCC2CC2)n1 [Example 179, 2-((Cyclopropylmethyl)amino)-N-(4-(4,4-difluoropiperidin-1-yl)-6-fluoropyridin-3-yl)pyrimidine-4-carboxamide] | 0.61 nM | 94 nM | 0.7 nM | – |
| O=C(Nc1cnc(F)cc1N1CCC(F)(F)CC1)c1ccnc(Nc2ccc(F)cc2)n1 [Example 180, N-(4-(4,4-Difluoropiperidin-1-yl)-6-fluoropyridin-3-yl)-2-((4-fluorophenyl)amino)pyrimidine-4-carboxamide] | 0.39 nM | 68 nM | 0.9 nM | – |
| O=C(Nc1cnc(F)cc1N1CCC(F)(F)CC1)c1ccnc(Nc2ccc(OC(F)F)cc2)n1 [Example 181, 2-((4-(Difluoromethoxy)phenyl)amino)-N-(4-(4,4-difluoropiperidin-1-yl)-6-fluoropyridin-3-yl)pyrimidine-4-carboxamide] | 1.6 nM | 77 nM | 1.2 nM | – |
